From patent publication US11339110B2, “Efficient crystallization process for preparing ultrapure Treprostinil and crystal prepared therefrom” (CHIROGATE INTERNATIONAL INC., priority 2019, dated 2022)

How the values were obtained:
Format in all cases: physicochemical
[1] = Filterability of Treprostinil crystal (microfiltration, pressure change during filtering); details: 100 ml sample solution, 25±1° C., 0.22 μm hydrophilic PVDF membrane
Description: The filterability of sample solution is numerical estimated by the pressure changes inside the microfiltration assemblies during filtering. The microfiltration assemblies with 47 mm fritted glass, 0.22 μm hydrophilic PVDF filter membrane, 250 ml bottle, PANCHUM VP-900 dry pump, and an external pressure gauge were settled for tracing the pressure changes during filtration. The usage volume of sample solution for filtering was set as 100 ml and the filtering temperature was set as 25±1° C. for comparing the filterability of samples in a similar experimental condition.
Sample of crystalline Form I of anhydrous Treprostinil in ethyl acetate (containing 3% v/v water) was prepared from Example 5, and the concentration is about 0.05 g/ml. Sample of crystalline Form A of anhydrous Treprostinil in acetonitrile was prepared as disclosed by U.S. Pat. No. 9,278,903 Example 12, and the concentration is about 0.02 g/ml. […] The pressure changes of pure ethyl acetate, pure acetonitrile, crystalline Form I of anhydrous Treprostinil in ethyl acetate (containing 3% v/v water), crystalline Form A of anhydrous Treprostinil in acetonitrile, and monohydrated Treprostinil crystal in ethanol/water during filtration were measured and the results am shown in FIG. 10.

[2] = Stability of Treprostinil in ethanol (UPLC tracing of ethyl ester and dimers); details: 40±1° C.; for Treprostinil / Treprostinil dimer-1 (IT201d1) / Treprostinil dimer-2 (IT201d2) / Treprostinil ethyl ester (IT201e2): 1.00 g in 5 ml ethanol, UPLC
Description: (§1) Ultra Performance Liquid Chromatography (UPLC) Analysis: The UPLC spectra were collected on a Waters ACQUITY UPLC instrument. The conditions were shown as the following: The sample is diluted to 1 mg/ml by […] (v/v) acetonitrile/H2O. The column is Waters BEH C18, 1.7 μm, 2.1*150 mm. The mobile phase is 60/40 (v/v) buffer/acetonitrile from 0 to 10 min, gradient changes of buffer/acetonitrile from 60/40 to 5/95 (v/v) (curve 6) from 10 to 20 min, 5/95 (v/v) buffer/acetonitrile from 20 to 25 min, gradient changes of buffer/acetonitrile from 5/95 to 0/100 (v/v) (curve 6) from 25 to 30 min, 0/100 (v/v) buffer/acetonitrile from 30 to 35 min. Buffer solution is pH 3.0 aqueous solution adjusted by trifluoroacetic acid. The flow rate is set as 0.42 ml/min. Column temperature is set as 45° C., sample temperature is set as 25° C. Injection is 1.5 μL. Run time is 35 min. UV detector is set as 210 nm.
1.00 g Treprostinil was dissolved in 5 ml ethanol in a glass vial at room temperature to form a homogenous solution, which was stirred at 40±1° C. oil bath and periodically sampled to UPLC measurement for tracing the formation of Treprostinil ethyl ester and Treprostinil dimers.

[3] = Stability of Treprostinil stored in a glass vial at 40° C. (UPLC tracing of ethyl ester and dimers); details: 40±1° C.; for Treprostinil / Treprostinil dimer-1 (IT201d1) / Treprostinil dimer-2 (IT201d2): no solvent, glass vial, UPLC
Description: as §1
0.01% g Treprostinil was placed in a glass vial and stirred at 40±1° C. oil bath and periodically sampled to UPLC measurement for tracing the formation of Treprostinil ethyl ester and Treprostinil dimers.

finish time of filtration ([1]; 47 mm fritted glass): about 92 seconds
solution filtered ([1]; until about 180 seconds): ~80%
Treprostinil ([2]; time 0 h): 99.88%
Treprostinil dimer-1 (IT201d1) ([2]; time 0 h): 0.04%
Treprostinil dimer-2 (IT201d2) ([2]; time 0 h): 0.06%
Treprostinil ethyl ester (IT201e2) ([2]; time 0 h): 0.02%
Treprostinil ([2]; time 2 h): 99.50%
Treprostinil dimer-1 (IT201d1) ([2]; time 2 h): 0.04%
Treprostinil dimer-2 (IT201d2) ([2]; time 2 h): 0.07%
Treprostinil ethyl ester (IT201e2) ([2]; time 2 h): 0.39%
Treprostinil ([2]; time 4 h): 99.07%
Treprostinil dimer-1 (IT201d1) ([2]; time 4 h): 0.06%
Treprostinil dimer-2 (IT201d2) ([2]; time 4 h): 0.06%
Treprostinil ethyl ester (IT201e2) ([2]; time 4 h): 0.81%
Treprostinil ([2]; time 6 h): 98.68%
Treprostinil dimer-1 (IT201d1) ([2]; time 6 h): 0.07%
Treprostinil dimer-2 (IT201d2) ([2]; time 6 h): 0.07%
Treprostinil ethyl ester (IT201e2) ([2]; time 6 h): 1.18%
Treprostinil ([2]; time 8 h): 98.15%
Treprostinil dimer-1 (IT201d1) ([2]; time 8 h): 0.10%
Treprostinil dimer-2 (IT201d2) ([2]; time 8 h): 0.11%
Treprostinil ethyl ester (IT201e2) ([2]; time 8 h): 1.64%
Treprostinil ([2]; time 10 h): 97.73%
Treprostinil dimer-1 (IT201d1) ([2]; time 10 h): 0.12%
Treprostinil dimer-2 (IT201d2) ([2]; time 10 h): 0.11%
Treprostinil ethyl ester (IT201e2) ([2]; time 10 h): 2.04%
Treprostinil ([2]; time 12 h): 97.41%
Treprostinil dimer-1 (IT201d1) ([2]; time 12 h): 0.13%
Treprostinil dimer-2 (IT201d2) ([2]; time 12 h): 0.09%
Treprostinil ethyl ester (IT201e2) ([2]; time 12 h): 2.37%
formation rate of Treprostinil dimers ([2]; dissolved in ethanol): about 0.01 % per hour
formation rate of Treprostinil ethyl ester ([2]; dissolved in ethanol): about 0.2 % per hour
formation rate of Treprostinil dimers ([3]; Treprostinil stored without solvent): about 0.01 % per hour
Treprostinil ([3]; time 0 h): 99.90%
Treprostinil dimer-1 (IT201d1) ([3]; time 0 h): 0.04%
Treprostinil dimer-2 (IT201d2) ([3]; time 0 h): 0.06%
Treprostinil ([3]; time 2 h): 99.89%
Treprostinil dimer-1 (IT201d1) ([3]; time 2 h): 0.06%
Treprostinil dimer-2 (IT201d2) ([3]; time 2 h): 0.05%
Treprostinil ([3]; time 4 h): 99.88%
Treprostinil dimer-1 (IT201d1) ([3]; time 4 h): 0.06%
Treprostinil dimer-2 (IT201d2) ([3]; time 4 h): 0.06%
Treprostinil ([3]; time 6 h): 99.84%
Treprostinil dimer-1 (IT201d1) ([3]; time 6 h): 0.07%
Treprostinil dimer-2 (IT201d2) ([3]; time 6 h): 0.08%
Treprostinil ([3]; time 8 h): 99.83%
Treprostinil dimer-1 (IT201d1) ([3]; time 8 h): 0.08%
Treprostinil dimer-2 (IT201d2) ([3]; time 8 h): 0.09%
Treprostinil ([3]; time 10 h): 99.79%
Treprostinil dimer-1 (IT201d1) ([3]; time 10 h): 0.09%
Treprostinil dimer-2 (IT201d2) ([3]; time 10 h): 0.12%
Treprostinil ([3]; time 12 h): 99.77%
Treprostinil dimer-1 (IT201d1) ([3]; time 12 h): 0.10%
Treprostinil dimer-2 (IT201d2) ([3]; time 12 h): 0.13%
Structure (SMILES): CCCCC[C@H](O)CC[C@@H]1[C@H]2Cc3cccc(OCC(=O)O)c3C[C@H]2C[C@H]1O [Treprostinil]
